Reference: ChEMBL document CHEMBL4665764, “Synthesis and Biological Evaluation of Celastrol Derivatives as Potential Immunosuppressive Agents” (J Nat Prod, 2020)

Columns and labels:
[1] = Cytotoxicity against BALB/c mouse T cell assessed as reduction in cell viability after 48 hrs by CCK8 assay; format: tissue-based, T cell line; details: BALB/c mouse T cells
[2] = Antiproliferative activity against Con A-induced BALB/c mouse T cell after 48 hrs by CCK8 assay; format: functional, tissue-based, T cell line
[3] = Selectivity index, ratio of CC50 for cytotoxicity against BALB/c mouse T cell to IC50 for antiproliferative activity against Con A-induced BALB/c mouse T cell; parameters: species or system T cell line

Compound | CC50 at 48 h [1] [µM] | IC50 [2] [µM] | Ratio CC50/IC50 [3]
C#CCOC(=O)[C@]1(C)CC[C@]2(C)CC[C@]3(C)C4=C[C@@H](c5c[nH]c6cc(Cl)ccc56)c5c(cc(OC(C)=O)c(OC(C)=O)c5C)[C@]4(C)CC[C@@]3(C)[C@@H]2C1 | 4.1 | ≥ 10 | 
C#CCOC(=O)[C@]1(C)CC[C@]2(C)CC[C@]3(C)C4=C[C@@H](c5c[nH]c6cc(F)ccc56)c5c(cc(OC(C)=O)c(OC(C)=O)c5C)[C@]4(C)CC[C@@]3(C)[C@@H]2C1 | ≥ 10 | ≥ 10 | 
C#CCOC(=O)[C@]1(C)CC[C@]2(C)CC[C@]3(C)C4=C[C@@H](c5c[nH]c6ccc(C)cc56)c5c(cc(OC(C)=O)c(OC(C)=O)c5C)[C@]4(C)CC[C@@]3(C)[C@@H]2C1 | ≥ 10 | ≥ 10 | 
CCOC(=O)[C@]1(C)CC[C@]2(C)CC[C@]3(C)C4=CC=C5C(=CC(=O)C(O)=C5C)[C@]4(C)CC[C@@]3(C)[C@@H]2C1 | 1.4 | 0.82 | 1.3
CC1=C(O)C(=O)C=C2C1=CC=C1[C@@]2(C)CC[C@@]2(C)[C@@H]3C[C@](C)(C(=O)OCc4cccc(C)c4)CC[C@]3(C)CC[C@]12C | 1.9 | 1.6 | 
C#CCOC(=O)[C@]1(C)CC[C@]2(C)CC[C@]3(C)C4=C[C@@H](c5c[nH]c6ccc(Br)cc56)c5c(cc(OC(C)=O)c(OC(C)=O)c5C)[C@]4(C)CC[C@@]3(C)[C@@H]2C1 | ≥ 10 | ≥ 10 | 
C#CCOC(=O)[C@]1(C)CC[C@]2(C)CC[C@]3(C)C4=C[C@@H](c5c[nH]c6ccc(OC)cc56)c5c(cc(OC(C)=O)c(OC(C)=O)c5C)[C@]4(C)CC[C@@]3(C)[C@@H]2C1 | ≥ 10 | ≥ 10 | 
COCCOC(=O)[C@]1(C)CC[C@]2(C)CC[C@]3(C)C4=CC=C5C(=CC(=O)C(O)=C5C)[C@]4(C)CC[C@@]3(C)[C@@H]2C1 | 1.3 | 0.454 | 2.8
CC1=C(O)C(=O)C=C2C1=CC=C1[C@@]2(C)CC[C@@]2(C)[C@@H]3C[C@](C)(C(=O)On4nnc5ccccc54)CC[C@]3(C)CC[C@]12C | 15.1 | 1.88 | 8.1
CCCCOC(=O)[C@]1(C)CC[C@]2(C)CC[C@]3(C)C4=CC=C5C(=CC(=O)C(O)=C5C)[C@]4(C)CC[C@@]3(C)[C@@H]2C1 | 0.9 | 0.739 | 1.2
CC1=C(O)C(=O)C=C2C1=CC=C1[C@@]2(C)CC[C@@]2(C)[C@@H]3C[C@](C)(C(=O)OCC4CCCCC4)CC[C@]3(C)CC[C@]12C | 1.3 | 1.26 | 1
CCCCNC(=O)[C@]1(C)CC[C@]2(C)CC[C@]3(C)C4=CC=C5C(=CC(=O)C(O)=C5C)[C@]4(C)CC[C@@]3(C)[C@@H]2C1 | 1.2 | 0.063 | 19.3
CC1=C(O)C(=O)C=C2C1=CC=C1[C@@]2(C)CC[C@@]2(C)[C@@H]3C[C@](C)(C(=O)NCCN(C)C)CC[C@]3(C)CC[C@]12C | 1.2 | 0.225 | 5.5
CC1=C(O)C(=O)C=C2C1=CC=C1[C@@]2(C)CC[C@@]2(C)[C@@H]3C[C@](C)(C(=O)NCc4ccccc4C)CC[C@]3(C)CC[C@]12C | 1.1 | 0.312 | 3.6
CC1=C(O)C(=O)C=C2C1=CC=C1[C@@]2(C)CC[C@@]2(C)[C@@H]3C[C@](C)(C(=O)N4CCCC4)CC[C@]3(C)CC[C@]12C | 1.9 | 0.323 | 3.4
C#CCNC(=O)[C@]1(C)CC[C@]2(C)CC[C@]3(C)C4=CC=C5C(=CC(=O)C(O)=C5C)[C@]4(C)CC[C@@]3(C)[C@@H]2C1 | 1.4 | 0.112 | 16.4
CC1=C(O)C(=O)C=C2C1=CC=C1[C@@]2(C)CC[C@@]2(C)[C@@H]3C[C@](C)(C(=O)OCc4ccccc4C)CC[C@]3(C)CC[C@]12C | 1.7 | 1.04 | 1.6
COC(=O)[C@H](Cc1ccc(O)cc1)NC(=O)[C@]1(C)CC[C@]2(C)CC[C@]3(C)C4=CC=C5C(=CC(=O)C(O)=C5C)[C@]4(C)CC[C@@]3(C)[C@@H]2C1 | 1.4 | 0.205 | 6.9
CCNC(=O)[C@]1(C)CC[C@]2(C)CC[C@]3(C)C4=CC=C5C(=CC(=O)C(O)=C5C)[C@]4(C)CC[C@@]3(C)[C@@H]2C1 | 1.1 | 0.031 | 34.6
CCCNC(=O)[C@]1(C)CC[C@]2(C)CC[C@]3(C)C4=CC=C5C(=CC(=O)C(O)=C5C)[C@]4(C)CC[C@@]3(C)[C@@H]2C1 | 1.1 | 0.064 | 16.5
CC1=C(O)C(=O)C=C2C1=CC=C1[C@@]2(C)CC[C@@]2(C)[C@@H]3C[C@](C)(C(=O)OCc4ccccc4Br)CC[C@]3(C)CC[C@]12C | 1.8 | 1.55 | 1.1

Compound | CC50 at 48 h [1] [µM] | IC50 [2] [µM] | Ratio CC50/IC50 [3]
C#CCOC(=O)[C@]1(C)CC[C@]2(C)CC[C@]3(C)C4=C[C@@H](c5c[nH]c6c(C)cccc56)c5c(cc(OC(C)=O)c(OC(C)=O)c5C)[C@]4(C)CC[C@@]3(C)[C@@H]2C1 | ≥ 10 | ≥ 10 | 
CC1=C(O)C(=O)C=C2C1=CC=C1[C@@]2(C)CC[C@@]2(C)[C@@H]3C[C@](C)(C(=O)NC(C)C)CC[C@]3(C)CC[C@]12C | 0.8 | 0.083 | 6.9
CC1=C(O)C(=O)C=C2C1=CC=C1[C@@]2(C)CC[C@@]2(C)[C@@H]3C[C@](C)(C(=O)NCc4cccc(C)c4)CC[C@]3(C)CC[C@]12C | 1 | 0.294 | 3.4
CC1=C(O)C(=O)C=C2C1=CC=C1[C@@]2(C)CC[C@@]2(C)[C@@H]3C[C@](C)(C(=O)OCc4ccccc4)CC[C@]3(C)CC[C@]12C | 1.1 | 1.05 | 1
CC1=C(O)C(=O)C=C2C1=CC=C1[C@@]2(C)CC[C@@]2(C)[C@@H]3C[C@](C)(C(=O)OCc4cccc(Br)c4)CC[C@]3(C)CC[C@]12C | 1.8 | 1.07 | 1.7
CC1=C(O)C(=O)C=C2C1=CC=C1[C@@]2(C)CC[C@@]2(C)[C@@H]3C[C@](C)(C(=O)NCc4ccccc4)CC[C@]3(C)CC[C@]12C | 0.8 | 0.362 | 2.1
C#CCOC(=O)[C@]1(C)CC[C@]2(C)CC[C@]3(C)C4=C[C@@H](c5c[nH]c6cc(OC)ccc56)c5c(cc(OC(C)=O)c(OC(C)=O)c5C)[C@]4(C)CC[C@@]3(C)[C@@H]2C1 | 3 | ≥ 10 | 
CC1=C(O)C(=O)C=C2C1=CC=C1[C@@]2(C)CC[C@@]2(C)[C@@H]3C[C@](C)(C(=O)O)CC[C@]3(C)CC[C@]12C [CELASTROL] | 0.1 | 0.083 | 1.5
CC1=C(O)C(=O)C=C2C1=CC=C1[C@@]2(C)CC[C@@]2(C)[C@@H]3C[C@](C)(C(=O)OCc4ccc(C(F)(F)F)cc4)CC[C@]3(C)CC[C@]12C | 6.7 | 4.87 | 1.4
COC(=O)[C@]1(C)CC[C@]2(C)CC[C@]3(C)C4=CC=C5C(=CC(=O)C(O)=C5C)[C@]4(C)CC[C@@]3(C)[C@@H]2C1 [PRISTIMERIN] | 2.4 | 1.2 | 2
C#CCOC(=O)[C@]1(C)CC[C@]2(C)CC[C@]3(C)C4=C[C@@H](c5c[nH]c6ccc(F)cc56)c5c(cc(OC(C)=O)c(OC(C)=O)c5C)[C@]4(C)CC[C@@]3(C)[C@@H]2C1 | 5.6 | ≥ 10 | 
CC1=C(O)C(=O)C=C2C1=CC=C1[C@@]2(C)CC[C@@]2(C)[C@@H]3C[C@](C)(C(=O)OCc4ccc(F)cc4)CC[C@]3(C)CC[C@]12C | 2 | 1.46 | 1.4
C#CCOC(=O)[C@]1(C)CC[C@]2(C)CC[C@]3(C)C4=CC=C5C(=CC(=O)C(O)=C5C)[C@]4(C)CC[C@@]3(C)[C@@H]2C1 | 1.4 | 1.12 | 1.3
COCCCOC(=O)[C@]1(C)CC[C@]2(C)CC[C@]3(C)C4=CC=C5C(=CC(=O)C(O)=C5C)[C@]4(C)CC[C@@]3(C)[C@@H]2C1 | 1.7 | 0.994 | 1.7
CC1=C(O)C(=O)C=C2C1=CC=C1[C@@]2(C)CC[C@@]2(C)[C@@H]3C[C@](C)(C(=O)OCCBr)CC[C@]3(C)CC[C@]12C | 1.1 | 0.721 | 1.6
C#CCOC(=O)[C@]1(C)CC[C@]2(C)CC[C@]3(C)C4=C[C@@H](c5c[nH]c6ccc(Cl)cc56)c5c(cc(OC(C)=O)c(OC(C)=O)c5C)[C@]4(C)CC[C@@]3(C)[C@@H]2C1 | ≥ 10 | ≥ 10 | 
C#CCOC(=O)[C@]1(C)CC[C@]2(C)CC[C@]3(C)C4=C[C@@H](c5c[nH]c6ccccc56)c5c(cc(OC(C)=O)c(OC(C)=O)c5C)[C@]4(C)CC[C@@]3(C)[C@@H]2C1 | ≥ 10 | ≥ 10 | 
CC1=C(O)C(=O)C=C2C1=CC=C1[C@@]2(C)CC[C@@]2(C)[C@@H]3C[C@](C)(C(=O)OCCCl)CC[C@]3(C)CC[C@]12C | 1.1 | 0.771 | 1.4
CCCOC(=O)[C@]1(C)CC[C@]2(C)CC[C@]3(C)C4=CC=C5C(=CC(=O)C(O)=C5C)[C@]4(C)CC[C@@]3(C)[C@@H]2C1 | 1.2 | 0.924 | 1.3
C=CCOC(=O)[C@]1(C)CC[C@]2(C)CC[C@]3(C)C4=CC=C5C(=CC(=O)C(O)=C5C)[C@]4(C)CC[C@@]3(C)[C@@H]2C1 | 1.3 | 1.18 | 1.1
CC1=C(O)C(=O)C=C2C1=CC=C1[C@@]2(C)CC[C@@]2(C)[C@@H]3C[C@](C)(C(=O)OCCC(C)C)CC[C@]3(C)CC[C@]12C | 1.5 | 1.09 | 1.4
